Assay results taken from patent US10414811B2, “Protease-resistant lipidated GLP-1 analogs” (MEDIMMUNE LIMITED, priority 2015, dated 2019).
Like-named read-outs stand apart in the source and are kept apart here. Numbered stars: 1 amine (or outer) side, 2 acyl side, 3 side chain; on linkers, the order of the positions; unused ones are H or OH. Square brackets hold non-standard residues; d marks the D form. Side chains are listed from the residue outwards. Peptide text beside a SMILES is read from it. * marks the point of attachment. γGlu = O=C(O)[C@H](CCC(=O)[*:2])N[*:1]; Palmitoyl = CCCCCCCCCCCCCCCC(=O)*; αMeF = C[C@](N)(Cc1ccccc1)C(=O)O; αMeK = C[C@](N)(CCCCN)C(=O)O; αMeS = C[C@](N)(CO)C(=O)O; Aib = CC(C)(N)C(=O)O

Key:
Assay type in all cases: cell-based
[1] = molecular target: T1, human glucose-dependent insulinotropic peptide receptor (GIPR) (Homo sapiens, UniProt P48546); assay: cAMP assay, human GIPR cells; settings: cAMP assay
T1 construct: expressed in transfected cells
T1 sequence (P48546 22-466): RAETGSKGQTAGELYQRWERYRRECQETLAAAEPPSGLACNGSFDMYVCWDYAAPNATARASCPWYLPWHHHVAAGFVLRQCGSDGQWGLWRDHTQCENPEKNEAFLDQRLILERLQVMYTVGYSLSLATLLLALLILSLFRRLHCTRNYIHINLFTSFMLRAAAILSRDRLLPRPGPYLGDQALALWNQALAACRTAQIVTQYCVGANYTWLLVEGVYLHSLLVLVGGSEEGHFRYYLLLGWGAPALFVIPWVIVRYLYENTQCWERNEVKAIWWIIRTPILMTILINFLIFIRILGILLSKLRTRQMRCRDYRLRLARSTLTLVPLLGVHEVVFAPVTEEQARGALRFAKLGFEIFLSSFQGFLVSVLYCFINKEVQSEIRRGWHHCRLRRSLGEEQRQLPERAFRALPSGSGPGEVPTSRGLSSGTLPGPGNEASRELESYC
Method in brief: (§1)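 Peptide-stimulated cAMP measured by two-step HTRF after a 30 min room-temperature incubation with receptor-expressing cells (hGLP-1R, hGIPR at 1×10^5 cells/ml; hGCGR at 2×10^5 cells/ml). Duplicate dilutions; EC50 from 4-parameter logistic fit of % Delta F.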

[2] = molecular target: T2, human GLP-1 receptor (GLP-1R) (Homo sapiens, UniProt P43220); assay: cAMP assay, human GLP-1R cells
T2 construct: expressed in transfected cells
Method in brief: as §1

[3] = molecular target: T3, human glucagon receptor (GCGR) (Homo sapiens, UniProt P47871); assay: cAMP assay, human GCGR cells; settings: cAMP assay
T3 construct: expressed in transfected cells
Method in brief: as §1

[4] = first determination (n1), read-out: Primary assay EC50 GIP-R (n1)
[5] = second determination (n2), read-out: Primary assay EC50 GIP-R (n2)
[6] = cAMP assay, first determination (n1), read-out: Primary assay EC50 GLP-1R n1
[7] = cAMP assay, second determination (n2), read-out: Primary assay EC50 GLP-1R n2
[8] = mean of n1 and n2, read-out: Mean pM GLP-1R
[9] = first determination (n1), read-out: Primary assay EC50 Gluc-R (n1)
[10] = second determination (n2), read-out: Primary assay EC50 Gluc-R (n2)

T3 sequence (P47871 26-477): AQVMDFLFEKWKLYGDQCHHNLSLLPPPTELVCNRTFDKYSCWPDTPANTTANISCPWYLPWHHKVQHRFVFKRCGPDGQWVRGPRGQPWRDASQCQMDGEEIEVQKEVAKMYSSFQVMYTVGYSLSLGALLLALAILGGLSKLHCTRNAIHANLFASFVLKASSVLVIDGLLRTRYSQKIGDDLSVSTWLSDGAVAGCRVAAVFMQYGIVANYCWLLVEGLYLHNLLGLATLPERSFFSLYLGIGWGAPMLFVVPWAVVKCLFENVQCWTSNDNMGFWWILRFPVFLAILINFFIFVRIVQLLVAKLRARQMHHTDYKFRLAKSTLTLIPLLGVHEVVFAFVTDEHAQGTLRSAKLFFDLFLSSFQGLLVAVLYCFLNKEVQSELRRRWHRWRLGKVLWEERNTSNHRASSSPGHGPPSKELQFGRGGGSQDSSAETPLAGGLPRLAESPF
T2 sequence (P43220 24-463): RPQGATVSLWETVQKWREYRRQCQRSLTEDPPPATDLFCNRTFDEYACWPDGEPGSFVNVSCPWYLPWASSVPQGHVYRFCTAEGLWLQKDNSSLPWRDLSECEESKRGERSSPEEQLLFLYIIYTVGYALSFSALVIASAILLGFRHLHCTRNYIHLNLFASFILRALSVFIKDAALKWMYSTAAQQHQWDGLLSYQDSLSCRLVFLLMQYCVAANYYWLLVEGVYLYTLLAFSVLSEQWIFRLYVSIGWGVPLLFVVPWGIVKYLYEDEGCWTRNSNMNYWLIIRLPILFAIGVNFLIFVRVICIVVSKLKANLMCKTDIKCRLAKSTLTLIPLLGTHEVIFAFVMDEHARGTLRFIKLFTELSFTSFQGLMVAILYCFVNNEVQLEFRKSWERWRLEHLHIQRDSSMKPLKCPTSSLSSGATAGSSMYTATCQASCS

CCCCCCCCCCCCCCCC(=O)N[C@@H](CCC(=O)NCCCC[C@H](NC(=O)[C@@H](NC(=O)[C@H](CC(=O)O)NC(=O)[C@H](CO)NC(=O)[C@@H](NC(=O)[C@](C)(Cc1ccccc1)NC(=O)[C@H](CO)NC(=O)CNC(=O)[C@H](CCC(=O)O)NC(=O)C(C)(C)NC(=O)[C@@H](N)Cc1c[nH]cn1)[C@@H](C)O)C(C)C)C(=O)N[C@@H](CO)C(=O)N[C@@](C)(Cc1ccccc1)C(=O)N[C@@H](CC(C)C)C(=O)N[C@@H](CCC(=O)O)C(=O)NCC(=O)N[C@@H](CCC(=O)O)C(=O)N[C@@H](C)C(=O)N[C@@H](C)C(=O)N[C@@](C)(CCCCN)C(=O)N[C@@H](CCC(=O)O)C(=O)N[C@@](C)(Cc1ccccc1)C(=O)N[C@H](C(=O)N[C@@H](C)C(=O)N[C@@](C)(Cc1ccccc1)C(=O)N[C@H](C(=O)N[C@H](C(=O)N[C@@](C)(CCCCN)C(=O)NCC(=O)NCC(N)=O)C(C)C)C(C)C)[C@@H](C)CC)C(=O)O [compound 89]
EC50 [1, 4]: ≥ 28 nM
EC50 [1, 5]: ≥ 28 nM
EC50 [2, 6]: 450 pM
EC50 [2, 7]: 650 pM
EC50 [2, 8]: 548 pM
EC50 [3, 9]: ≥ 28 nM
EC50 [3, 10]: ≥ 28 nM

CCCCCCCCCCCCCCCC(=O)N[C@@H](CCC(=O)NCCCC[C@H](NC(=O)[C@@H](NC(=O)[C@](C)(Cc1ccccc1)NC(=O)[C@H](CO)NC(=O)CNC(=O)[C@H](CCC(=O)O)NC(=O)C(C)(C)NC(=O)[C@@H](N)Cc1c[nH]cn1)[C@@H](C)O)C(=O)N[C@@H](CC(=O)O)C(=O)N[C@H](C(=O)N[C@@](C)(CO)C(=O)N[C@@H](CO)C(=O)N[C@@](C)(Cc1ccccc1)C(=O)N[C@@H](CC(C)C)C(=O)N[C@@H](CCC(=O)O)C(=O)NCC(=O)N[C@@H](CCC(=O)O)C(=O)N[C@@H](C)C(=O)N[C@@H](C)C(=O)N[C@@](C)(CCCCN)C(=O)N[C@@H](CCC(=O)O)C(=O)N[C@@](C)(Cc1ccccc1)C(=O)N[C@H](C(=O)N[C@@H](C)C(=O)N[C@@](C)(Cc1ccccc1)C(=O)N[C@H](C(=O)N[C@H](C(=O)N[C@@](C)(CCCCN)C(=O)NCC(=O)NCC(N)=O)C(C)C)C(C)C)[C@@H](C)CC)C(C)C)C(=O)O [compound 92] (H-H[Aib]EGS[αMeF]TK([γGlu-Palmitoyl])DV[αMeS]S[αMeF]LEGEAA[αMeK]E[αMeF]IA[αMeF]VV[αMeK]GG-NH2; N-terminus assumed)
EC50 [1, 4]: ≥ 28 nM
EC50 [1, 5]: ≥ 28 nM
EC50 [2, 6]: 450 pM
EC50 [2, 7]: 390 pM
EC50 [2, 8]: 423 pM
EC50 [3, 9]: ≥ 28 nM
EC50 [3, 10]: ≥ 28 nM

CCCCCCCCCCCCCCCC(=O)N[C@@H](CCC(=O)NCCCC[C@H](NC(=O)[C@@H](NC(=O)[C@](C)(Cc1ccccc1)NC(=O)[C@H](C)NC(=O)[C@@H](NC(=O)[C@](C)(Cc1ccccc1)NC(=O)[C@H](CCC(=O)O)NC(=O)[C@](C)(CCCCN)NC(=O)[C@H](C)NC(=O)[C@H](C)NC(=O)[C@H](CCC(=O)O)NC(=O)CNC(=O)[C@H](CCC(=O)O)NC(=O)[C@H](CC(C)C)NC(=O)[C@](C)(Cc1ccccc1)NC(=O)[C@H](CO)NC(=O)[C@](C)(CO)NC(=O)[C@@H](NC(=O)[C@H](CC(=O)O)NC(=O)[C@H](CO)NC(=O)[C@@H](NC(=O)[C@](C)(Cc1ccccc1)NC(=O)[C@H](CO)NC(=O)CNC(=O)[C@H](CCC(=O)O)NC(=O)C(C)(C)NC(=O)[C@@H](N)Cc1c[nH]cn1)[C@@H](C)O)C(C)C)[C@@H](C)CC)C(C)C)C(=O)N[C@@](C)(CCCCN)C(=O)NCC(=O)NCC(N)=O)C(=O)O [compound 73] (H-H[Aib]EGS[αMeF]TSDV[αMeS]S[αMeF]LEGEAA[αMeK]E[αMeF]IA[αMeF]VK([γGlu-Palmitoyl])[αMeK]GG-NH2)
EC50 [1, 4]: ≥ 28 nM
EC50 [1, 5]: ≥ 28 nM
EC50 [2, 6]: 130 pM
EC50 [2, 7]: 160 pM
EC50 [2, 8]: 146 pM
EC50 [3, 9]: ≥ 28 nM
EC50 [3, 10]: ≥ 28 nM

CC[C@H](C)[C@H](NC(=O)[C@](C)(Cc1ccccc1)NC(=O)[C@H](CCC(=O)O)NC(=O)[C@H](CCCCNC(=O)COCCOCCNC(=O)COCCOCCNC(=O)CCCCCCCCCCCOc1ccc(C(=O)O)cc1)NC(=O)[C@H](C)NC(=O)[C@H](C)NC(=O)[C@H](CCC(=O)O)NC(=O)CNC(=O)[C@H](CCC(=O)O)NC(=O)[C@H](CC(C)C)NC(=O)[C@](C)(Cc1ccccc1)NC(=O)[C@H](CO)NC(=O)[C@](C)(CO)NC(=O)[C@@H](NC(=O)[C@H](CC(=O)O)NC(=O)[C@H](CO)NC(=O)[C@@H](NC(=O)[C@](C)(Cc1ccccc1)NC(=O)[C@H](CO)NC(=O)CNC(=O)[C@H](CCC(=O)O)NC(=O)C(C)(C)NC(=O)[C@@H](N)Cc1c[nH]cn1)[C@@H](C)O)C(C)C)C(=O)N[C@@H](C)C(=O)N[C@@](C)(Cc1ccccc1)C(=O)N[C@H](C(=O)N[C@H](C(=O)N[C@@](C)(CCCCN)C(=O)NCC(=O)NCC(N)=O)C(C)C)C(C)C [compound 144]
EC50 ([1]; Primary assay EC50 GIP-R (n1), first determination (n1)): ≥ 26 nM
EC50 ([1]; read-out: Primary assay EC50 GIP-R (n2), second determination (n2)): ≥ 26 nM
EC50 [2, 6]: 16 pM
EC50 [2, 7]: 9.6 pM
EC50 [2, 8]: 12.6 pM
EC50 ([3]; Primary assay EC50 Gluc-R (n1), first determination (n1)): ≥ 26 nM
EC50 ([3]; read-out: Primary assay EC50 Gluc-R (n2), second determination (n2)): ≥ 26 nM

CC[C@H](C)[C@H](NC(=O)[C@](C)(Cc1ccccc1)NC(=O)[C@H](CCC(=O)O)NC(=O)[C@H](CCCCNC(=O)CCCCCNC(=O)CCCCCNC(=O)CCCCCNC(=O)CCCCCCCCCCCCCCCCC(=O)O)NC(=O)[C@H](C)NC(=O)[C@H](C)NC(=O)[C@H](CCC(=O)O)NC(=O)CNC(=O)[C@H](CCC(=O)O)NC(=O)[C@H](CC(C)C)NC(=O)[C@](C)(Cc1ccccc1)NC(=O)[C@H](CO)NC(=O)[C@](C)(CO)NC(=O)[C@@H](NC(=O)[C@H](CC(=O)O)NC(=O)[C@H](CO)NC(=O)[C@@H](NC(=O)[C@](C)(Cc1ccccc1)NC(=O)[C@H](CO)NC(=O)CNC(=O)[C@H](CCC(=O)O)NC(=O)C(C)(C)NC(=O)[C@@H](N)Cc1c[nH]cn1)[C@@H](C)O)C(C)C)C(=O)N[C@@H](C)C(=O)N[C@@](C)(Cc1ccccc1)C(=O)N[C@H](C(=O)N[C@H](C(=O)N[C@@](C)(CCCCN)C(=O)NCC(=O)NCC(N)=O)C(C)C)C(C)C [compound 160]
EC50 [1, 4]: ≥ 26 nM
EC50 [1, 5]: ≥ 26 nM
EC50 [2, 6]: 390 pM
EC50 [2, 7]: 320 pM
EC50 [2, 8]: 351 pM
EC50 [3, 9]: ≥ 26 nM
EC50 [3, 10]: ≥ 26 nM

CC[C@H](C)[C@H](NC(=O)[C@](C)(Cc1ccccc1)NC(=O)[C@H](CCC(=O)O)NC(=O)[C@](C)(CCCCN)NC(=O)[C@H](C)NC(=O)[C@H](C)NC(=O)[C@H](CCC(=O)O)NC(=O)CNC(=O)[C@H](CCC(=O)O)NC(=O)[C@H](CC(C)C)NC(=O)[C@](C)(Cc1ccccc1)NC(=O)[C@H](CO)NC(=O)[C@H](CO)NC(=O)[C@@H](NC(=O)[C@H](CC(=O)O)NC(=O)[C@](C)(CO)NC(=O)[C@@H](NC(=O)[C@](C)(Cc1ccccc1)NC(=O)[C@H](CO)NC(=O)CNC(=O)[C@H](CCC(=O)O)NC(=O)C(C)(C)NC(=O)[C@@H](N)Cc1c[nH]cn1)[C@@H](C)O)C(C)C)C(=O)N[C@@H](C)C(=O)N[C@@](C)(Cc1ccccc1)C(=O)N[C@H](C(=O)N[C@H](C(=O)N[C@@](C)(CCCCN)C(=O)NCC(=O)NCC(N)=O)C(C)C)C(C)C [compound 16]
EC50 [1, 4]: ≥ 100 nM
EC50 [1, 5]: ≥ 100 nM
EC50 [2, 6]: 11000 pM
EC50 [2, 7]: 9400 pM
EC50 [2, 8]: 10100 pM
EC50 [3, 9]: ≥ 100 nM
EC50 [3, 10]: ≥ 100 nM
